# Assay results from PMC5464773 (eLife, 2017).
# Peptide text beside a SMILES is read from it. * marks the point of attachment. Acryloyl = C=CC(=O)*
# Columns and labels:
# Assay in all cases: BH3 profiling, mitochondrial depolarization (JC-1) in permeabilized cells
# Type in all cases: cell-based
# [1] = test system: BCR-ABL-expressing B-lineage acute lymphoblastic leukemia cells dependent on Bfl-1; set-up: key to Bottom (best-fit value) / Top (best-fit value): % depolarization, normalized to DMSO (0) and FCCP (100) controls; details: BH3 profiling fits Bfl-1, sigmoidal dose-response (variable slope)
# Method: (§1) Cell line identities were confirmed by STR profiling.
# (§2) Peptides were titrated by serial dilution in MEB buffer (150 mM Mannitol, 10 mM HEPES-KOH pH 7.5, 50 mM KCl, 0.02 mM EGTA, 0.02 mM EDTA, 0.1% BSA and 5 mM Succinate) containing 20 μg/mL oligomycin, 50 μg/mL digitonin, 2 μM JC-1 and 10 mM 2-mercaptoethanol in 384-well plates. Controls for no depolarization (1% DMSO) and complete depolarization with the mitochondrial oxidative phosphorylation uncoupler FCCP (20 μM) were included for data normalization. […] 15 μL of cell suspension was added to each well containing 15 μL of treatment solution. […] To produce percent depolarization, the area under the resultant curve was calculated and normalized to the assay controls. Peptide titration curves were fit to sigmoidal dose-response curves using Graphpad PRISM seven to obtain EC50 values.
# [2] = test system: BCR-ABL-expressing B-lineage acute lymphoblastic leukemia cells dependent on Bcl-xL; details: BH3 profiling fits Bcl-xL, sigmoidal dose-response (variable slope), fit ambiguous
# Method: as §1, §2
# [3] = test system: BCR-ABL-expressing B-lineage acute lymphoblastic leukemia cells dependent on Mcl-1; details: BH3 profiling fits Mcl-1, sigmoidal dose-response (variable slope)
# Method: as §1, §2
compound,measurement,setting,value
C=CC(=O)N[C@@H](Cc1c[nH]c2ccccc12)C(=O)N[C@H](C(=O)N[C@@H](CCCNC(=N)N)C(=O)N[C@@H](CCC(=O)O)C(=O)N[C@H](C(=O)N[C@@H](C)C(=O)N[C@@H](C)C(=O)NCC(=O)N[C@@H](CC(C)C)C(=O)N[C@@H](CCCNC(=N)N)C(=O)N[C@@H](CCCNC(=N)N)C(=O)N[C@@H](C)C(=O)N[C@@H](C)C(=O)N[C@@H](CC(=O)O)C(=O)N[C@@H](CC(=O)O)C(=O)N[C@H](C(=O)N[C@@H](CC(N)=O)C(=O)N[C@@H](C)C(=O)N[C@@H](CCC(N)=O)C(=O)N[C@H](C(=O)N[C@@H](CCC(=O)O)C(=O)N[C@@H](CCCNC(=N)N)C(N)=O)C(C)C)C(C)C)[C@@H](C)CC)C(C)C [FS2gX] (Acryloyl-WVREIAAGLRRAADDVNAQVER-NH2),HillSlope (best-fit value),[1],0.7987
same,Bottom (best-fit value),[1]; constraint Bottom < 5,-3.828
same,Top (best-fit value),[1]; constraint Top > 78,78.27
same,LogEC50 (best-fit value),"[1]; x = Log [Peptide] M, 55-56 Y values analyzed",-8.01
same,Bottom (best-fit value),[2]; constraint Bottom < 5,~ -1647
same,Top (best-fit value),[2]; constraint Top > 78,~ 78
same,HillSlope (best-fit value),[2],~ -0.02698
same,HillSlope (best-fit value),[3],0.1762
same,Bottom (best-fit value),[3]; constrained (0 < Bottom < 5 or Bottom < 5),-6.58
same,Top (best-fit value),[3]; constrained (Top < 100 or Top > 78),~ 78
